# Patent US11578056B2, “Solid forms comprising (S)-2-(2,6-dioxopiperidin-3-yl)-4-((2-fluoro-4-((3-morpholinoazetidin-1-yl)methyl)benzyl)amino)isoindoline-1,3-dione and salts thereof, and compositions comprising and methods of using the same” (Celgene Corporation, priority 2019, dated 2023)
# pEC50, pIC50: −log10 of the molar value.
# Tested on: Karpas-231 cell line
# Experiment: Hematological cell line viability/apoptosis flow cytometry assay
# Format: cell-based
# Settings: Karpas-231 (ALL), 120 h
# Protocol: Cell Proliferation and Viability Assay Using Hematological Cell Lines: The following exemplary anti-proliferative assay uses exemplary hematological cell lines in the following. The in vitro growth inhibitory activity of Compound 1 described herein was evaluated using a 384-well flow cytometry assay.
# The final concentration of DMSO was 0.1% (v/v). Following the addition of Compound 1 or DMSO and incubation for 120 hours, cell number and cell death were analyzed by flow cytometry (Attune®, Thermo Fisher) using Annexin V and the live-cell impermeant DNA dye, DRAQ7. Phosphatidylserine translocates from the inner layer to the outer layer of the cell membrane early in apoptosis and Annexin V binds to the exposed phosphatidylserine found on the surface of an apoptotic cell. The vital dye DRAQ7 is excluded by intact live cells and only stains cells that have died as a result of apoptosis or necrosis.
# Flow cytometry data analysis was then performed using the Flow Jo_v10 software to determine the number of viable cells (Annexin V and DRAQ7 double negative staining cells) and percentage of apoptotic cells (Annexin V positive cells) for each condition. The live cell count for every concentration was normalized to the DMSO control (considered as 100%) to calculate the percentage of viable cells remaining after treatment and graphed using GraphPad Prism 7.03. The IC50 (50% inhibitory concentration) and Emax (maximum efficacy achieved) values were then calculated by performing nonlinear regression curve fitting using log(inhibitor) vs. normalized response—variable slope analysis on GraphPad Prism 7.03. Area under the curve (AUC) was calculated by performing area under curve analysis on GraphPad Prism 7.03. Similarly, for apoptosis analysis, the percentage of apoptosis combining both “early” (Annexin V positive and DRAQ7 negative) and “late” apoptosis (Annexin V and DRAQ7 positive) cell gates relative to DMSO was graphed using GraphPad Prism 7.03. The AUC, EC50 (concentration of compound that produces half-maximal apoptosis response) and Ymax (maximal percentage of apoptosis achieved) values from apoptosis curves were calculated by performing area under curve analysis and nonlinear regression curve fitting using log(agonist) vs. normalized response—Variable slope analysis on GraphPad Prism 7.03.
# Dose-response proliferation curves for the panel of hematological cell lines and non-linear curve-fit regression were used to determine IC50, AUC, and Emax for % viable cells (Emax for viability varies between 100 at low doses and 0 at high doses, which corresponds to inhibition of all viable cells), and dose-response apoptosis curves were used to determine the EC50, AUC, and Ymax for % apoptosis (Ymax for apoptosis varies from 0 at low doses and 100 at higher doses which corresponds to death of all cells). […] Viability and apoptosis for all cell lines was determined by Annexin V/[…] flow cytometry.
compound,measurement,setting,value
"O=C1CC[C@H](N2C(=O)c3cccc(NCc4ccc(CN5CC(N6CCOCC6)C5)cc4F)c3C2=O)C(=O)N1 [Compound 1, (S)-2-(2,6-dioxopiperidin-3-yl)-4-((2-fluoro-4-((3-morpholinoazetidin-1-yl)methyl)benzyl)amino)isoindoline-1,3-dione]",% Viable Cells AUC,,449.4
same,% Viable Cells Emax,,0%
same,Apoptosis AUC,,5.720
same,Apoptosis Ymax,,5.00%
same,pEC50,,3.05
same,pIC50,read-out: % Viable Cells IC50,6.32
